Assays:
Assay type in all cases: in vivo
[1] = test system: mechanical hyperalgesia in the Seltzer model of neuropathic pain in the rat; assay: Seltzer model, perioperative administration of Compound A on neuropathic hyperalgesia; conditions: for Paw withdrawal threshold: ipsilateral paw
Text: (§1) Two animal models of chronic neuropathic pain may be used that involve some form of peripheral nerve damage. In the Seltzer model (Seltzer et al. (1990) Pain 43: 205-218) rats are anaesthetised and a small incision made mid-way up one thigh (usually the left) to expose the sciatic nerve. The nerve is carefully cleared of surrounding connective tissues at a site near the trochanter just distal to the point at which the posterior biceps semitendinosus nerve branches off the common sciatic nerve. A 7-0 silk suture is inserted into the nerve with a ⅜ curved, reversed-cutting mini-needle, and tightly ligated so that the dorsal ⅓ to ½ of the nerve thickness is held within the ligature. The muscle and skin are closed with sutures and clips and the wound dusted with antibiotic powder. In sham animals the sciatic nerve is exposed but not ligated and the wound closed as in nonsham animals.
(§2) In all chronic pain models (inflammatory and neuropathic) mechanical hyperalgesia is assessed by measuring paw withdrawal thresholds of both hindpaws to an increasing pressure stimulus using an Analgesymeter (Ugo-Basile, Milan). Mechanical allodynia is assessed by measuring withdrawal thresholds to non-noxious mechanical stimuli applied with von Frey hairs to the plantar surface of both hindpaws. Thermal hyperalgesia is assessed by measuring withdrawal latencies to a noxious thermal stimulus applied to the underside of each hindpaw. With all models, mechanical hyperalgesia and allodynia and thermal hyperalgesia develop within 1-3 days following surgery and persist for at least 50 days. For the assays described herein, drugs may be applied before and after surgery to assess their effect on the development of hyperalgesia, particularly approximately 14 days following surgery, to determine their ability to reverse established hyperalgesia.
(§3) The percentage reversal of hyperalgesia is calculated as follows: [formula] In the experiments disclosed herein, Wistar rats (male) are employed in pain models described above. Rats weigh approximately 120-140 grams at the time of surgery. All surgery is performed under enflurane/O2 inhalation anaesthesia. In all cases the wound is closed after the procedure and the animal allowed to recover. In all pain models employed, after a few days in all but the sham operated animals, a marked mechanical and thermal hyperalgesia and allodynia develops in which there is a lowering of pain threshold and an enhanced reflex withdrawal response of the hind-paw to touch, pressure or thermal stimuli. […] In the majority of animals the toes of the affected hind paw are held together and the foot turned slightly to one side; in some rats the toes are also curled under. The gait of the ligated rats varies, but limping is uncommon. […] The rats tend to be very sensitive to touch and may vocalise. Otherwise the general health an condition of the rats is good.
(§4) The effect of Compound A on mechanical hyperalgesia and allodynia is examined in the Seltzer model of neuropathic pain in the rat (Seltzer et al, 1990) as described above. With this model mechanical hyperalgesia and allodynia is induced in the ipsilateral (ligated) hindpaw approximately 1 day following surgery and persists for some weeks. Mechanical hyperalgesia is assessed by measuring paw withdrawal thresholds of both hindpaws to an increasing pressure stimulus using an Analgesymeter (Ugo-Basile, Milan). Mechanical allodynia is assessed by measuring withdrawal thresholds to non-noxious mechanical stimuli applied with von Frey hairs to the plantar surface of both hindpaws.
Compound A also affects the development of hyperalgesia following peri-operative dosing. […] The effect of the two doses of Compound A lasted for approximately 7 days by which time the degreee of hyperalgesia is similar to that seen in vehicle treated animals.
All animals received administration of vehicle or compound 1 h prior to surgery (pre) and 5 h following surgery (post).

[2] = test system: mechanical hyperalgesia in the Seltzer model of neuropathic pain in the rat; assay: Seltzer model, established neuropathic hyperalgesia, repeated administration of Compound A
Text: as §1, §2, §3, §4
Inhibition of MMP7 may also reduce established mechanical hyperalgesia. 7 days following ligation ipsilateral paw withdrawal thresholds are reduced to approximately 65 g compared to contralteral readings of approximately 100 g, indicating mechanical hyperalgesia. Compound A (3 and 30 mg/kg) or vehicle (20% cremaphor/water) is then administered orally twice daily for 10 days. […]

[3] = test system: mechanical hyperalgesia in the Seltzer model of neuropathic pain in the rat; assay: Seltzer model, development of mechanical hyperalgesia, repeated administration of Compound A
Text: as §1, §2, §3, §4
Experimental Protocol: The effect of Compound A on the development of mechanical hyperalgesia is tested by administering the compound or vehicle (20% cremaphor/water) orally twice daily for 7 days starting on the day of surgery. Prior to surgery paw withdrawal thresholds of ipsilateral (ligated) and contralateral (non-ligated) paws are approximately 100 g. […]

CC[C@H](C(=O)NO)[C@H](C(=O)N1CCCC[C@H]1C(=O)NC(C)C)c1ccc(Cl)cc1 [Compound A, (S)-1-[(2S,3S)-2-(4-Chloro-phenyl)-3-hydroxycarbamoyl-pentanoyl]-piperidine-2-carboxylic acid isopropylamide]
duration of the effect of the two doses ([1]; 30 mg/kg oral 1 h prior to and 5 h following surgery): approximately 7 days
degree of hyperalgesia (ipsilateral paw withdrawal thresholds versus vehicle) ([1]; 30 mg/kg oral 1 h prior to surgery and again 5 h following surgery): significant reduction in the degree of hyperalgesia
Paw withdrawal threshold ([1]; Compound A 30 mg/kg oral 1 h pre surgery + Compound A 5 h post, day 1 of study): 79.2 ± 2.4 g
Paw withdrawal threshold ([1]; Compound A 30 mg/kg oral 1 h pre surgery + Compound A 5 h post, day 2 of study): 81.7 ± 2.1 g
Paw withdrawal threshold ([1]; Compound A 30 mg/kg oral 1 h pre surgery + Compound A 5 h post, day 3 of study): 80.0 ± 2.2 g
Paw withdrawal threshold ([1]; Compound A 30 mg/kg oral 1 h pre surgery + Compound A 5 h post, day 4 of study): 77.5 ± 1.1 g
Paw withdrawal threshold ([1]; Compound A 30 mg/kg oral 1 h pre surgery + Compound A 5 h post, day 6 of study): 73.3 ± 3.1 g
Paw withdrawal threshold ([1]; Compound A 30 mg/kg oral 1 h pre surgery + Compound A 5 h post, day 7 of study): 70.8 ± 2.4 g
Paw withdrawal threshold ([1]; Compound A 30 mg/kg oral 1 h pre surgery + Compound A 5 h post, pre-surgery (baseline)): 101.7 ± 1.1 g
Paw withdrawal threshold ([1]; Compound A 30 mg/kg oral 1 h pre surgery + vehicle 5 h post, day 1 of study): 75.8 ± 2.4 g
Paw withdrawal threshold ([1]; Compound A 30 mg/kg oral 1 h pre surgery + vehicle 5 h post, day 2 of study): 69.2 ± 3.7 g
Paw withdrawal threshold ([1]; Compound A 30 mg/kg oral 1 h pre surgery + vehicle 5 h post, day 3 of study): 70.8 ± 2.0 g
Paw withdrawal threshold ([1]; Compound A 30 mg/kg oral 1 h pre surgery + vehicle 5 h post, day 4 of study): 67.5 ± 1.7 g
Paw withdrawal threshold ([1]; Compound A 30 mg/kg oral 1 h pre surgery + vehicle 5 h post, day 6 of study): 70.0 ± 2.2 g
Paw withdrawal threshold ([1]; Compound A 30 mg/kg oral 1 h pre surgery + vehicle 5 h post, day 7 of study): 65.0 ± 3.2 g
Paw withdrawal threshold ([1]; Compound A 30 mg/kg oral 1 h pre surgery + vehicle 5 h post, pre-surgery (baseline)): 105.0 ± 1.3 g
inhibition of hyperalgesia ([1]; single dose 1 h prior to surgery): significant inhibition of hyperalgesia only at 1 day post surgery
ipsilateral paw withdrawal threshold ([2]; 3 mg/kg orally twice daily for 10 days starting 7 days after ligation, day 1 of study): 62.5 ± 2.1 g
ipsilateral paw withdrawal threshold ([2]; 3 mg/kg orally twice daily for 10 days starting 7 days after ligation, day 2 of study): 68.3 ± 1.1 g
ipsilateral paw withdrawal threshold ([2]; 3 mg/kg orally twice daily for 10 days starting 7 days after ligation, day 3 of study): 67.5 ± 2.5 g
ipsilateral paw withdrawal threshold ([2]; 3 mg/kg orally twice daily for 10 days starting 7 days after ligation, day 4 of study): 80.0 ± 2.2 g
ipsilateral paw withdrawal threshold ([2]; 3 mg/kg orally twice daily for 10 days starting 7 days after ligation, day 5 of study): 80.0 ± 3.4 g
ipsilateral paw withdrawal threshold ([2]; 3 mg/kg orally twice daily for 10 days starting 7 days after ligation, day 6 of study): 80.8 ± 2.4 g
ipsilateral paw withdrawal threshold ([2]; 3 mg/kg orally twice daily for 10 days starting 7 days after ligation, day 7 of study): 80.8 ± 2.4 g
ipsilateral paw withdrawal threshold ([2]; 3 mg/kg orally twice daily for 10 days starting 7 days after ligation, day 8 of study): 80.8 ± 2.4 g
ipsilateral paw withdrawal threshold ([2]; 3 mg/kg orally twice daily for 10 days starting 7 days after ligation, day 9 of study): 75.8 ± 3.5 g
ipsilateral paw withdrawal threshold ([2]; 3 mg/kg orally twice daily for 10 days starting 7 days after ligation, day 10 of study): 81.7 ± 3.1 g
ipsilateral paw withdrawal threshold ([2]; 3 mg/kg orally twice daily for 10 days starting 7 days after ligation, day 11 of study): 76.7 ± 2.1 g
ipsilateral paw withdrawal threshold ([2]; 3 mg/kg orally twice daily for 10 days starting 7 days after ligation, day 12 of study): 78.3 ± 2.5 g
ipsilateral paw withdrawal threshold ([2]; 3 mg/kg orally twice daily for 10 days starting 7 days after ligation, day 13 of study): 79.2 ± 2.4 g
ipsilateral paw withdrawal threshold ([2]; 3 mg/kg orally twice daily for 10 days starting 7 days after ligation, day 14 of study): 75.8 ± 3.5 g
ipsilateral paw withdrawal threshold ([2]; 3 mg/kg orally twice daily for 10 days starting 7 days after ligation, day 15 of study): 76.7 ± 2.5 g
ipsilateral paw withdrawal threshold ([2]; 3 mg/kg orally twice daily for 10 days starting 7 days after ligation, day 18 of study): 75.8 ± 2.4 g
ipsilateral paw withdrawal threshold ([2]; 3 mg/kg orally twice daily for 10 days starting 7 days after ligation, day 21 of study): 74.2 ± 1.5 g
ipsilateral paw withdrawal threshold ([2]; 3 mg/kg orally twice daily for 10 days starting 7 days after ligation, day 23 of study): 70.0 ± 1.8 g
ipsilateral paw withdrawal threshold ([2]; 3 mg/kg orally twice daily for 10 days starting 7 days after ligation, predose): 65.8 ± 0.8 g
ipsilateral paw withdrawal threshold ([2]; 30 mg/kg orally twice daily for 10 days starting 7 days after ligation, day 1 of study): 68.3 ± 2.1 g
ipsilateral paw withdrawal threshold ([2]; 30 mg/kg orally twice daily for 10 days starting 7 days after ligation, day 2 of study): 68.3 ± 1.7 g
ipsilateral paw withdrawal threshold ([2]; 30 mg/kg orally twice daily for 10 days starting 7 days after ligation, day 3 of study): 71.7 ± 2.1 g
ipsilateral paw withdrawal threshold ([2]; 30 mg/kg orally twice daily for 10 days starting 7 days after ligation, day 4 of study): 78.3 ± 4.8 g
ipsilateral paw withdrawal threshold ([2]; 30 mg/kg orally twice daily for 10 days starting 7 days after ligation, day 5 of study): 84.2 ± 2.4 g
ipsilateral paw withdrawal threshold ([2]; 30 mg/kg orally twice daily for 10 days starting 7 days after ligation, day 6 of study): 84.2 ± 4.4 g
ipsilateral paw withdrawal threshold ([2]; 30 mg/kg orally twice daily for 10 days starting 7 days after ligation, day 7 of study): 83.3 ± 5.4 g
ipsilateral paw withdrawal threshold ([2]; 30 mg/kg orally twice daily for 10 days starting 7 days after ligation, day 8 of study): 83.3 ± 2.5 g
ipsilateral paw withdrawal threshold ([2]; 30 mg/kg orally twice daily for 10 days starting 7 days after ligation, day 9 of study): 79.2 ± 3.0 g
ipsilateral paw withdrawal threshold ([2]; 30 mg/kg orally twice daily for 10 days starting 7 days after ligation, day 10 of study): 85.0 ± 2.6 g
ipsilateral paw withdrawal threshold ([2]; 30 mg/kg orally twice daily for 10 days starting 7 days after ligation, day 11 of study): 82.5 ± 3.4 g
ipsilateral paw withdrawal threshold ([2]; 30 mg/kg orally twice daily for 10 days starting 7 days after ligation, day 12 of study): 80.8 ± 2.4 g
ipsilateral paw withdrawal threshold ([2]; 30 mg/kg orally twice daily for 10 days starting 7 days after ligation, day 13 of study): 80.0 ± 2.6 g
ipsilateral paw withdrawal threshold ([2]; 30 mg/kg orally twice daily for 10 days starting 7 days after ligation, day 14 of study): 78.3 ± 1.7 g
ipsilateral paw withdrawal threshold ([2]; 30 mg/kg orally twice daily for 10 days starting 7 days after ligation, day 15 of study): 78.3 ± 2.5 g
ipsilateral paw withdrawal threshold ([2]; 30 mg/kg orally twice daily for 10 days starting 7 days after ligation, day 18 of study): 77.5 ± 2.1 g
ipsilateral paw withdrawal threshold ([2]; 30 mg/kg orally twice daily for 10 days starting 7 days after ligation, day 21 of study): 81.7 ± 2.5 g
ipsilateral paw withdrawal threshold ([2]; 30 mg/kg orally twice daily for 10 days starting 7 days after ligation, day 23 of study): 77.5 ± 2.1 g
ipsilateral paw withdrawal threshold ([2]; 30 mg/kg orally twice daily for 10 days starting 7 days after ligation, predose): 66.7 ± 2.1 g
ipsilateral paw withdrawal thresholds compared to vehicle treated animals ([2]; after 4 days of drug treatment, 3 and 30 mg/kg orally twice daily): significant increase in ipsilateral paw withdrawal thresholds
persistence of increased thresholds following cessation of compound administration ([2]; at the higher dose (30 mg/kg)): up to 2 weeks
ipsilateral withdrawal thresholds versus vehicle treated animals ([3]; 3 days after the end of compound administration): remain elevated above those of vehicle treated animals
withdrawal thresholds of contralateral paws ([3]; contralateral (non-ligated) paw, following surgery, vehicle or compound administration, throughout the experiment): do not significantly change
Paw withdrawal threshold ([3]; ipsilateral paw, 3 mg/kg orally twice daily for 7 days from day of surgery, day 1 of treatment): 72.5 ± 2.8 g
Paw withdrawal threshold ([3]; ipsilateral paw, 3 mg/kg orally twice daily for 7 days from day of surgery, day 2 of treatment): 76.7 ± 3.1 g
Paw withdrawal threshold ([3]; ipsilateral paw, 3 mg/kg orally twice daily for 7 days from day of surgery, day 3 of treatment): 78.3 ± 2.5 g
Paw withdrawal threshold ([3]; ipsilateral paw, 3 mg/kg orally twice daily for 7 days from day of surgery, day 4 of treatment): 83.3 ± 2.8 g
Paw withdrawal threshold ([3]; ipsilateral paw, 3 mg/kg orally twice daily for 7 days from day of surgery, day 5 of treatment): 83.3 ± 5.7 g
Paw withdrawal threshold ([3]; ipsilateral paw, 3 mg/kg orally twice daily for 7 days from day of surgery, day 7 of treatment): 86.7 ± 4.8 g
Paw withdrawal threshold ([3]; ipsilateral paw, 3 mg/kg orally twice daily for 7 days from day of surgery, day 10 (3 days after end of dosing)): 90.0 ± 4.7 g
Paw withdrawal threshold ([3]; ipsilateral paw, 3 mg/kg orally twice daily for 7 days from day of surgery, pre-surgery (baseline)): 100.8 ± 2.4 g
Paw withdrawal threshold ([3]; ipsilateral paw, 30 mg/kg orally twice daily for 7 days from day of surgery, day 1 of treatment): 78.3 ± 2.8 g
Paw withdrawal threshold ([3]; ipsilateral paw, 30 mg/kg orally twice daily for 7 days from day of surgery, day 2 of treatment): 80.8 ± 4.0 g
Paw withdrawal threshold ([3]; ipsilateral paw, 30 mg/kg orally twice daily for 7 days from day of surgery, day 3 of treatment): 83.3 ± 4.9 g
Paw withdrawal threshold ([3]; ipsilateral paw, 30 mg/kg orally twice daily for 7 days from day of surgery, day 4 of treatment): 85.8 ± 4.4 g
Paw withdrawal threshold ([3]; ipsilateral paw, 30 mg/kg orally twice daily for 7 days from day of surgery, day 5 of treatment): 83.2 ± 3.1 g
Paw withdrawal threshold ([3]; ipsilateral paw, 30 mg/kg orally twice daily for 7 days from day of surgery, day 7 of treatment): 82.0 ± 5.8 g
Paw withdrawal threshold ([3]; ipsilateral paw, 30 mg/kg orally twice daily for 7 days from day of surgery, day 10 (3 days after end of dosing)): 86.0 ± 4.0 g
Paw withdrawal threshold ([3]; ipsilateral paw, 30 mg/kg orally twice daily for 7 days from day of surgery, pre-surgery (baseline)): 97.5 ± 2.1 g
withdrawal thresholds after repeated dosing ([3]; ipsilateral paw, orally twice daily for 7 days from day of surgery, vehicle approximately 60 g): 80 to 90 g
